“And” between values parts separate entries of the source, which are not always exact repeats. Equal entries are not always repeated. Non-standard residues stand in square brackets, D forms with d. Residues, ends and D or L forms follow the SMILES beside them. pS = N[C@@H](COP(=O)(O)O)C(=O)O
Experiments:
[1] = Preliminary pharmacokinetic analysis in SD rats
Procedure: (§10) The drug half-life (t1/2) is calculated by the formula t1/2 = 0.693/k, where k is the elimination rate constant (k = (Inc1-Inc2)/(t2-t1)).

[2] = Cynomolgus monkey toxicity test: blood routine examination; assay type: in vivo
Procedure: (§1) The test was completed by Suzhou Xishan Zhongke Drugs Research and Development Co., Ltd. (Xishan, Suzhou, China). The study proposal was approved by the Institute Animal Care and Use Committee (IACUC, ID19012912). Cynomolgus monkeys (3-4 years old) were randomly divided into three groups (n = 4 per group, half male and female); and the monkeys were treated with solvent control (Mannitol in saline, 75 mg/kg/d), JP1 (45 mg/kg/day) and JP1 (150 mg/kg/day) for 14 days. The experiment was ended on 15th day and the animals were euthanasia. The relevant clinical parameters were determined on 7th and 13th day, respectively. The observed parameters were including clinical symptoms, weight, food intake, body temperature, ophthalmology, electrocardiogram, blood routine examination, blood biochemistry, blood coagulation, urinalysis, immunotoxicity.
(§2) Supplementary database files: Cynomolgus monkey toxicity test […]
(§3) The study was conducted by a contract service in Suzhou Xishan Zhongke Drugs Research and Development Co., Ltd. (Xishan, Suzhou, China). All the use of animals were approved by the Institute Animal Care and Use Commttee, IACUC. IACUC no. :
(§4) ID19012912. The veterinarian will supervise the breeding and welfare of the animals. The company follows the Guide for the Care and Use of Laboratory Animals (8th ed., 2011).
(§5) Cynomolgus monkeys (3-4 years old) were randomly divided into three groups (n = 4 per group, two males and two females for each group); and treated q.d./i.v. with Mannitol (75 mg/kg/d in saline), JP1 (45 mg/kg/d) and JP1 (150 mg/kg/d) for 14 days, respectively. JP1 was dissolved in saline (100 mg/2 ml) and administered intravenously at a rate of 3 ml/min.
(§6) The JP1 was provided by Hybio Pharmaceutical Co., Ltd. (Shenzhen, China); the production of small packaging preparation (100 mg/vial in freeze-dried powder, purity > 98%; -20 °C for storage and transportation) was completed under strict GMP conditions and quality control procedures for biological preparations. No recovery period was set for this test; the experimental model was ended on 15th day. The relevant clinical indicators including symptoms, body weight, food intake, temperature, ophthalmology, electrocardiogram, blood routine examination, blood biochemistry, blood coagulation, urinalysis, immunotoxicity were determined on 7th and 13th, respectively. […]
(§7) indicators in all animals, and the pathological observation of organs was not determined. […]
(§8) relevant clinical indicators in two JP1 groups were no difference compared with those in […]
(§9) Level (NOAEL) of JP1 was 150 mg/kg.

in vivo = conditions: male, Sprague-Dawley, rat, ip, 100 mg/kg, half-life (t1/2)
Procedure: as §10

[3] = Cynomolgus monkey toxicity test: immunotoxicity; assay type: in vivo
Procedure: as §1, §2, §3, §4, §5, §6, §7, §8, §9

B16F10 cell = experiment: B16F10 melanoma-bearing model, JP1 and DTIC alone or in combination; assay type: in vivo, mouse; conditions: 50 mg/kg JP1 combined with 40 mg/kg DTIC
Procedure: (A-C) (A) Schematic representation of the B16F10 and MEWO cells melanoma-bearing model for JP1 treatment (n = 6 per group). JP1 and its control agents were administered by intraperitoneal injection. […] (D-G) (D) Schematic representation of the B16F10 cell melanoma passive metastasis model for JP1 treatment. JP1 and its control agents were administered by intraperitoneal injection. […] (F) The representative melanoma lung metastatic images by H&E-staining (scale bars, 1000 μm). […] (J-L) (J) Schematic representation of the B16F10 cell melanoma-bearing model (n= 6 per group). Both JP1 and DTIC alone or in combination treatments and relative control was administered by intraperitoneal injection in mice.
The chemotherapeutic agent dacarbazine (DTIC) is currently as the first line drug used to treat metastatic melanoma in clinic, and was reported to cause painful symptoms and acquired resistance, compromising patient quality of life. To determine the possibility as a combination therapy between DTIC and JP1, we completed a joint treatment of DTIC and JP1 for melanoma tumor-bearing model (Figure 2J).

[4] = 14-day cynomolgus monkey toxicity test (overall); assay type: in vivo
Procedure: as §1, with “The observed parameters were including clinical symptoms, weight, food intake, body temperature, ophthalmology, electrocardiogram, blood routine examination, blood biochemistry, blood coagulation, urinalysis, immunotoxicity.” left out
as §6, with “No recovery period was set for this test; the experimental model was ended on 15th day.” left out
as §7

[5] = male, Sprague-Dawley, rat, blood, ip, 100 mg/kg
[6] = JP1 45 mg/kg/d i.v., D7, monkeys 1105,1106,2107,2108, 45 mg/kg/day
[7] = JP1 45 mg/kg/d i.v., D13, monkeys 1105,1106,2107,2108, 45 mg/kg/day
[8] = JP1 150 mg/kg/d i.v., D7, monkeys 1209,1210,2211,2212
[9] = JP1 150 mg/kg/d i.v., D7, monkeys 1209,1210,2211,2212, 150 mg/kg/day
[10] = JP1 150 mg/kg/d i.v., D13, monkeys 1209,1210,2211,2212, 150 mg/kg/day

## CC(=O)N[C@@H](Cc1ccccc1)C(=O)N1CCC[C@H]1C(=O)NCC(=O)N[C@@H](COP(=O)(O)O)C(=O)N[C@@H](CC(=O)O)C(=O)N[C@@H](CCCNC(=N)N)C(=O)N[C@@H](Cc1ccccc1)C(=O)NCC(=O)NCC(=O)NCC(=O)NCC(=O)N[C@@H](CCCNC(=N)N)C(=O)NCC(=O)N[C@@H](CC(=O)O)C(N)=O [JP1] (Ac-FPG[pS]DRFGGGGRGD-NH2)
[1]; SD rats, 100 mg/kg i.p., from 0.25 h and 1 h concentrations
  elimination rate constant k: 0.526
[1]; [5]
  level at 0.25 h: 20500 ng/mL
  level at 1 h: 13800 ng/mL
[2]; [6]
  BASO %: 0.1% and 0.0%
  EO %: 0.4% and 0.0% and 0.9% and 0.5%
  HCT: 34.5% and 36.0% and 39.6% and 37.9%
  HGB: 118 g/L and 111 g/L and 119 g/L and 104 g/L
  LYMPH %: 17.9% and 15.8% and 30.8% and 26.7%
  MCH: 23.1 pg and 24.5 pg and 23.4 pg and 23.2 pg
  MCHC: 311 g/L and 308 g/L and 301 g/L
  MCV: 79.5 fL and 77.0 fL and 78.0 fL and 74.3 fL
  MONO %: 2.6% and 2.2% and 3.8% and 2.0%
  NEUT %: 81.6% and 79.8% and 64.5% and 70.2%
  NEUT#: 9.22 109/L and 12.27 109/L and 11.67 109/L and 7.64 109/L
  PLT: 476 109/L and 539 109/L and 485 109/L and 393 109/L
  RBC: 5.10 1012/L and 4.53 1012/L and 5.08 1012/L and 4.48 1012/L
  RET%: 0.68% and 2.83% and 1.78% and 2.67%
  WBC: 15.04 109/L and 11.55 109/L and 18.07 109/L and 10.87 109/L
[2]; [7]
  BASO %: 0.0% and 0.1%
  EO %: 1.2% and 1.9% and 0.3% and 2.5%
  HCT: 40.1% and 36.5% and 39.2% and 42.2%
  HGB: 121 g/L and 113 g/L and 115 g/L and 127 g/L
  LYMPH %: 39.5% and 40.7% and 28.2% and 42.7%
  MCH: 25.3 pg and 23.1 pg and 23.9 pg and 23.3 pg
  MCHC: 302 g/L and 310 g/L and 293 g/L and 301 g/L
  MCV: 83.7 fL and 74.5 fL and 81.5 fL and 77.4 fL
  MONO %: 7.1% and 3.5% and 4.4% and 4.8%
  NEUT %: 52.2% and 53.8% and 67.0% and 49.9%
  PLT: 449 109/L and 489 109/L and 561 109/L and 590 109/L
  RBC: 4.79 1012/L and 4.90 1012/L and 4.81 1012/L and 5.45 1012/L
  RET%: 3.65% and 0.95% and 3.41% and 1.99%
[2]; [8]
  BASO %: 0.1%
  BASO#: 0.01 109/L
[2]; [9]
  EO %: 0.1% and 0.4% and 0.6%
  HCT: 37.0% and 38.5% and 37.2% and 34.6%
  HGB: 117 g/L and 112 g/L and 110 g/L and 106 g/L
  LYMPH#: 3.39 109/L and 3.63 109/L and 4.19 109/L and 2.35 109/L
  MCH: 24.4 pg and 23.3 pg and 23.4 pg and 21.8 pg
  MCHC: 316 g/L and 291 g/L and 296 g/L and 306 g/L
  MCV: 77.2 fL and 80.0 fL and 79.1 fL and 71.2 fL
  MONO %: 3.4% and 4.0% and 2.4%
  MONO#: 0.53 109/L and 0.65 109/L and 0.50 109/L and 0.39 109/L
  NEUT %: 74.4% and 77.1% and 61.7% and 82.9%
  NEUT#: 11.48 109/L and 14.75 109/L and 7.71 109/L and 13.42 109/L
  PLT: 457 109/L and 540 109/L and 391 109/L and 474 109/L
  RBC: 4.79 1012/L and 4.81 1012/L and 4.70 1012/L and 4.86 1012/L
  RET#: 44.1 109/L and 70.7 109/L and 81.8 109/L and 74.4 109/L
  RET%: 0.92% and 1.47% and 1.74% and 1.53%
  WBC: 15.42 109/L and 19.12 109/L and 12.48 109/L and 16.18 109/L
[2]; [10]
  BASO %: 0.1% and 0.0%
  EO %: 1.7% and 0.3% and 0.8% and 1.5%
  HCT: 38.8% and 38.3% and 37.7% and 36.9%
  HGB: 109 g/L and 115 g/L and 121 g/L and 111 g/L
  LYMPH %: 30.4% and 27.4% and 43.1% and 40.0%
  LYMPH#: 4.07 109/L and 5.06 109/L and 2.56 109/L and 4.46 109/L
  MCH: 23.7 pg and 21.4 pg and 24.5 pg and 23.8 pg
  MCHC: 295 g/L and 296 g/L and 316 g/L and 294 g/L
  MCV: 80.2 fL and 72.3 fL and 77.7 fL and 80.9 fL
  MONO %: 6.3% and 6.4% and 4.1% and 7.8%
  NEUT %: 65.9% and 52.0% and 50.6% and 61.5%
  PLT: 357 109/L and 548 109/L and 451 109/L and 510 109/L
  RBC: 4.60 1012/L and 5.37 1012/L and 4.93 1012/L and 4.66 1012/L
  RET%: 1.63% and 2.23% and 2.58% and 1.36%
  WBC: 9.44 109/L and 12.65 109/L and 8.41 109/L and 16.30 109/L
In vivo
  half-life: ~1.32 h
[3]; [6]
  CD3+CD4+: 14.420% and 14.760% and 20.160% and 13.220%
  CD3+CD8+: 27.140% and 25.500% and 32.040% and 35.620%
[3]; [7]
  CD3+CD4+: 13.100% and 19.100% and 14.180% and 13.220%
  CD3+CD8+: 41.820% and 43.140% and 47.160% and 31.220%
[3]; [9]
  CD3+CD8+: 35.120% and 32.940% and 27.060% and 33.660%
[3]; [10]
  CD3+CD4+: 24.420% and 20.280% and 28.260% and 22.580%
  CD3+CD8+: 40.460% and 36.280% and 38.920% and 46.260%
B16F10 cell
  body weight curve: stable
B16F10 cell; compared to DTIC alone
  liver injury: without obvious liver injury
[4]; I.V. 45 or 150 mg/kg/day for 14 days, compared to control
  changes in detected parameters (clinical symptoms, weight, food intake, body temperature, ophthalmology, ECG, blood, urinalysis, immune-toxicity): no significant changes in all detected parameters
[4]; both sexes, in vivo, iv, 14 days, read-out: no observed adverse effect level (NOAEL)
  NOAEL at 14 days: 150 mg/kg

Reference: paper PMC7381750, “JP1 suppresses proliferation and metastasis of melanoma through MEK1/2 mediated NEDD4L-SP1-Integrin αvβ3 signaling” (Theranostics, 2020)
